Results: patent publication US10000454B2, “Antidiabetic tricyclic compounds” (Merck Sharp & Dohme Corp., priority 2014, dated 2018)

Key:
Human GPR40 [1] = target: T1, Human GPR40 (Homo sapiens, UniProt O14842); assay: FLIPR assay, agonist-induced calcium mobilization; format: cell-based; parameters: expressed in transfected cells; conditions: GPR40/CHO NFAT BLA cells
Procedure: (§1) Human and mouse GPR40 stable cell-lines were generated in CHO cells stably expressing NFAT BLA (Beta-lactamase). A human GPR40 stable cell-line was generated in HER cells stably expressing the aequorin expressing reporter. The expression plasmids were transfected using lipofectamine (Life Technologies) following manufacturer's instructions. Stable cell-lines were generated following drug selection.
FLIPR (Fluorimetric Imaging Plate Reader, Molecular Devices) assays were performed to measure agonist-induced calcium mobilization of the stable clones. For the FLIPR assay, one day before assay, GPR40/CHO NFAT BLA cells were seeded into black-wall-clear-bottom 384-well plates (Costar) at 1.4×10e4 cells/20 μL medium/well. The cells were incubated with 20 μl/well of the assay buffer (HMS, 0.1% BSA, 20 mM HEPES, 2.5 mM probenecid, pH 7.4) containing 8 μM fluo-4, AM, 0.08% pluronic acid at room temperature for 100 minutes. Fluorescence output was measured using FLIPR. Compounds were dissolved in DMSO and diluted to desired concentrations with assay buffer. 13.3 μL/well of compound solution was added.

Human GPR40 [2] = target: T1, Human GPR40; assay: Inositol Phosphate Turnover (IP1) Assay; format: cell-based; parameters: expressed in transfected cells; host or cells: HEK cells (stably expressing the aequorin reporter); conditions: HEK cells stably expressing human GPR40, CisBio IP-One kit
Procedure: as §1
The assay is performed in 384-well format. HEK cells stably expressing human GPR40 are plated at 15,000 cells per well in growth medium (DMEM/10% fetal calf serum). Cell plates are then incubated 16 hours at 37 degrees in a 5% CO2 incubator.
Measurement of Inositol Phosphate Turnover (IP1) is performed using the CisBio IP-One kit (Part number 62IPAPEB). After the 16 hour incubation, the cells are washed with HEPES buffer and 10 ul of stimulation buffer (prepared as described in the kit) is added to each well. In a separate plate, compounds are diluted in DMSO (400-fold over the final concentration in the assay well) and 25 nl is acoustically transferred to the appropriate well in the assay cell plate. The plates are then incubated for 60 minutes at 37 degrees. 10 ul of detection buffer (also prepared as described in the IP-One kit) is added to each well and the plates are incubated for 60 minutes in the dark. The plates are then read in a Perkin Elmer EnVision or equivalent reader able to measure FRET. Fluorescent ratio of emission at 665 and 620 nm is then converted to IP1 concentration by back calculating from an IP1 standard curve prepared at the time of the assay.

T1 sequence (O14842 whole entry): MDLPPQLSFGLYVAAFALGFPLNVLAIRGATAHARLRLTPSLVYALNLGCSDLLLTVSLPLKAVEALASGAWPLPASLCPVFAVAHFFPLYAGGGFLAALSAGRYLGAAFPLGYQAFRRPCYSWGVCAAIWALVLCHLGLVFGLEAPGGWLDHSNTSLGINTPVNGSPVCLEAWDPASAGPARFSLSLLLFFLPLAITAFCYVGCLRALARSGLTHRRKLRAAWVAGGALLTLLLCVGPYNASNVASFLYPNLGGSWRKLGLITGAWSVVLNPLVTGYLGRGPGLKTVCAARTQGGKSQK

EC50 (Human GPR40 [1]) [nM] | Structure (SMILES) | EC50 (Human GPR40 [2]) [nM]
11.9 | CC1(C)CC(c2ccccc2C(F)(F)F)c2cc(COc3cc4c(cn3)[C@H]3[C@@H](C4)[C@@H]3C(=O)O)c(F)cc21 (single isomer, unassigned) [Example 22] | 12.5
19.9 | CC1(C)CC(c2ccccc2C(F)(F)F)c2cc(COc3cc4c(cn3)[C@H]3[C@@H](C4)[C@@H]3C(=O)O)c(F)cc21 (single isomer, unassigned) [Example 23] | 16.6
– | O=C(O)[C@H]1[C@@H]2Cc3cc(OCc4cc5c(cc4F)C(n4cccn4)CC5c4ccccc4C(F)(F)F)ncc3[C@@H]21 (single isomer, unassigned) [Example 57] | 1.78
– | O=C(O)[C@H]1[C@@H]2Cc3cc(OCc4cc5c(cc4F)C(n4cccn4)CC5c4ccccc4C(F)(F)F)ncc3[C@@H]21 (single isomer, unassigned) [Example 58] | 818
– | O=C(O)[C@H]1[C@@H]2Cc3cc(OCc4cc5c(cc4F)CCOC5c4ccccc4C(F)(F)F)ncc3[C@@H]21 (single isomer, unassigned) [Example 60] | 10.8
– | O=C(O)[C@H]1[C@@H]2Cc3cc(OCc4cccc5c4CCC5c4ccccc4C(F)(F)F)ncc3[C@@H]21 (single isomer, unassigned) [Example 64] | 154
– | O=C(O)[C@H]1[C@@H]2Cc3cc(OCc4cccc5c4CCC5c4ccccc4C(F)(F)F)ncc3[C@@H]21 (single isomer, unassigned) [Example 65] | 124
1.51 | O=C(O)[C@H]1[C@@H]2Cc3cc(OCc4cc5c(cc4F)C(F)(F)CC5c4ccccc4C(F)(F)F)ncc3[C@@H]21 (single isomer, unassigned) [Example 69] | 8.85
5.99 | O=C(O)[C@H]1[C@@H]2Cc3cc(OCc4cc5c(cc4F)C(F)(F)CC5c4ccccc4C(F)(F)F)ncc3[C@@H]21 (single isomer, unassigned) [Example 70] | 15.8
5.25 | CC1(C)CNC(c2ccccc2C(F)(F)F)c2cc(COc3cc4c(cn3)[C@H]3[C@@H](C4)[C@@H]3C(=O)O)c(F)cc21 (single isomer, unassigned) [Example 72] | 5.13
– | CC1(C)CC(c2ccccc2C(F)(F)F)c2cc(COc3cc4c(cn3)[C@@]3(C)[C@@H](C4)[C@@H]3C(=O)O)c(F)cc21 (single isomer, unassigned) [Example 75] | 157
– | O=C(O)[C@H]1[C@@H]2Cc3cc(OCc4cc5c(cc4F)CCC5c4ccccc4C(F)(F)F)ncc3[C@@H]21 (stereo partly drawn) [Example 20, (5aR,6S,6aS)-3-((6-fluoro-3-(2-(trifluoromethyl)phenyl)-2,3-dihydro-1H-inden-5-yl)methoxy)-5,5a,6,6a-tetrahydrocyclopropa[4,5]cyclopenta[1,2-c]pyridine-6-carboxylic acid] | 10.3
– | CC1(C)CC(c2ccccc2C(F)(F)F)c2cc(COc3cc4c(cn3)[C@@H]3[C@@H](C(=O)O)[C@@H]3C4(F)F)c(F)cc21 (stereo partly drawn) [Example 24, (5aR,6R,6aR)-5,5-difluoro-3-((6-fluoro-1,1-dimethyl-3-(2-(trifluoromethyl)phenyl)-2,3-dihydro-1H-inden-5-yl)methoxy)-5,5a,6,6a-tetrahydrocyclopropa[4,5]cyclopenta[1,2-c]pyridine-6-carboxylic acid] | 53
– | CC1(C)OC(c2ccccc2C(F)(F)F)c2cc(COc3cc4c(cn3)[C@H]3[C@@H](C4)[C@@H]3C(=O)O)c(F)cc21 (stereo partly drawn) [Example 41, (5aR,6S,6aS)-3-((6-fluoro-1,1-dimethyl-3-(2-(trifluoromethyl)phenyl)-1,3-dihydroisobenzofuran-5-yl)methoxy)-5,5a,6,6a-tetrahydrocyclopropa[4,5]cyclopenta[1,2-c]pyridine-6-carboxylic acid] | 1.99
– | COc1ccc(F)c(C2CC(C)(C)c3cc(F)c(COc4cc5c(cn4)[C@H]4[C@@H](C5)[C@@H]4C(=O)O)cc32)c1 (stereo partly drawn) [Example 45, (5aR,6S,6aS)-3-((6-fluoro-3-(2-fluoro-5-methoxyhenyl)-1,1-dimethyl-2,3-dihydro-1H-inden-5-yl)methoxy)-5,5a,6,6a-tetrahydro-cyclopropa[4,5]cyclopenta [1,2-c]pyridine-6-carboxylic acid] | 223
– | CC1(C)CCN(c2ccccc2C(F)(F)F)c2c1ccc(COc1cc3c(cn1)[C@H]1[C@@H](C3)[C@@H]1C(=O)O)c2F [Example 52, (5aR,6S,6aS)-3-((8-fluoro-4,4-dimethyl-1-(2-(trifluoromethyl)phenyl)-1,2,3,4-tetrahydroquinolin-7-yl)methoxy)-5,5a,6,6a-tetrahydrocyclopropa[4,5]cyclopenta[1,2-c]pyridine-6-carboxylic acid] | 29.7
– | COc1ccc(F)c(N2CC(C)(C)c3cc(F)c(COc4cc5c(cn4)[C@H]4[C@@H](C5)[C@@H]4C(=O)O)cc32)c1 [Example 56, (5aR,6S,6aS)-3-((5-fluoro-1-(2-fluoro-5-methoxyphenyl)-3,3-dimethylindolin-6-yl)methoxy)-5,5a,6,6a-tetrahydrocyclopropa[4,5]cyclopenta[1,2-c]pyridine-6-carboxylic acid] | 43.8
– | O=C(O)[C@H]1[C@@H]2Cc3cc(OCc4cc5c(cc4F)CCOC5c4ccccc4C(F)(F)F)ncc3[C@@H]21 (some centres unmarked) [Example 59] | 97.3
– | O=C(O)[C@H]1[C@@H]2Cc3cc(OCc4cc5c(-c6ccccc6C(F)(F)F)cn(-c6ccccc6)c5cc4F)ncc3[C@@H]21 [Example 63, (5aR,6S,6aS)-3-((6-fluoro-1-phenyl-3-(2-(trifluoromethyl)phenyl)-1H-indol-5-yl)methoxy)-5,5a,6,6a-tetrahydrocyclopropa[4,5]cyclopenta[1,2-c]pyridine-6-carboxylic acid] | 28.2
– | CC1(C)CC(C)(C)c2cc(COc3cc4c(cn3)[C@H]3[C@@H](C4)[C@@H]3C(=O)O)c(F)cc21 [Example 76, (5aR,6S,6aS)-3-((6-fluoro-1,1,3,3-tetramethyl-2,3-dihydro-1H-inden-5-yl)methoxy)-5,5a,6,6a-tetrahydrocyclopropa[4,5]cyclopenta[1,2-c]pyridine-6-carboxylic acid] | 17.3
– | O=C(O)[C@H]1[C@@H]2Cc3cc(OCc4cc5c(cnn5-c5ccccc5C(F)(F)F)cc4F)ncc3[C@@H]21 [Example 77, (5aR,6S,6aS)-3-((5-fluoro-1-(2-(trifluoromethyl)phenyl)-1H-indazol-6-yl)methoxy)-5,5a,6,6a-tetrahydrocyclopropa[4,5]cyclopenta[1,2-c]pyridine-6-carboxylic acid] | 7.08
– | O=C(O)[C@H]1[C@@H]2Cc3cc(OCc4cc5c(ccn5Cc5ccccc5C(F)(F)F)cc4F)ncc3[C@@H]21 [Example 78, (5aR,6S,6aS)-3-((5-fluoro-1-(2-(trifluoromethyl)benzyl)-1H-indol-6-yl)methoxy)-5,5a,6,6a-tetrahydrocyclopropa[4,5]cyclopenta[12-c]pyridine-6-carboxylic acid] | 195
– | CN(C)[C@H]1C[C@H](c2ccccc2C(F)(F)F)c2cc(COc3cc4c(cn3)[C@H]3[C@@H](C4)[C@@H]3C(=O)O)c(F)cc21 [Example 79, (5aR,6S,6aS)-3-(((1S,3S)-1-(dimethylamino)-6-fluoro-3-(2-(trifluoromethyl)phenyl)-2,3-dihydro-1H-inden-5-yl)methoxy)-5,5a,6,6a-tetrahydrocyclopropa[4,5]cyclopenta[1,2-c]pyridine-6-carboxylic acid, or (5aR,6S,6aS)-3-(((1R,3R)-1-(dimethylamino)-6-fluoro-3-(2-(trifluoromethyl)phenyl)-2,3-dihydro-1H-inden-5-yl)methoxy)-5,5a,6,6a-tetrahydrocyclopropa[4,5]cyclopenta[1,2-c]pyridine-6-carboxylic acid] | 15.4

Structure (SMILES) | EC50 (Human GPR40 [1]) [nM] | EC50 (Human GPR40 [2]) [nM]
O=C(O)[C@H]1[C@@H]2Cc3cc(OCc4ccc5c(c4)C(c4ccccc4C(F)(F)F)CCC5)ncc3[C@@H]21 (single isomer, unassigned) [Example 42] | 17.6 | 9.87
O=C(O)[C@H]1[C@@H]2Cc3cc(OCc4ccc5c(c4)C(c4ccccc4C(F)(F)F)CC54CC4)ncc3[C@@H]21 (stereo partly drawn) [Example 1, (5aR,6S,6aS)-3-((3′-(2-(trifluoromethyl)phenyl)-2′,3′-dihydrospiro[cyclopropane-1,1′-inden]-5′-yl)methoxy)-5,5a,6,6a-tetrahydrocyclopropa[4,5]cyclopenta[1,2-c]pyridine-6-carboxylic acid] | 32.6 | 11.4
